# Patent publication US9274109B2, “Gut flora-derived extracellular vesicles, and method for searching for a disease model, vaccine, and candidate drug and for diagnosis using the same” (AEON MEDIX INC., priority 2009, dated 2016)
# Where a name gives a salt, the structure may show the parent alone. Read-outs that look alike come from different tables or passages of the source.
# Tests used:
# [1] = tested on: mouse macrophages (RAW 264.7); assay: In vitro screening: extracellular vesicle-induced IL-6 secretion from macrophages; type: cell-based; conditions: for activity at 10 µM: Mus musculus, RAW 264.7, vesicles 100 ng/ml
# [2] = tested on: mouse peritoneal macrophages; assay: Ex vivo IL-6 release from mouse peritoneal macrophages with E. coli-derived extracellular vesicles; type: cell-based; conditions: 10 μM prodrug
# Protocol: FIG. 41 is a graph showing IL-6 levels obtained by treating mouse peritoneal macrophages with 10 μM prodrugs in the presence of E. coli-derived extracellular vesicles (EC_EV)
# [3] = tested on: mouse macrophages (RAW 264.7); assay: In vitro screening: extracellular vesicle-induced IL-6 secretion from macrophages; type: cell-based; conditions: RAW264.7, 15 h, read-out: level of IL-6 as percentage of the positive control (kinase inhibitors)
# Protocol: FIG. 35 is a schematic diagram showing the discovery of substances inhibitory of the gut flora-derived extracellular vesicles-induced release of IL-6. The mouse macrophages (RAW 264.7) were treated for 15 hours with the gut flora-derived extracellular vesicles (100 ng/ml) alone, separated by the method of Example 3, or in combination with a drug candidate (10 μM), in a 37° C. incubator. The culture media was collected and centrifuged at 4° C., 500×g for 10 min and then at 4° C., 3000×g for 20 min. IL-6 in the supernatant was quantitatively analyzed by ELISA. These processes account, at least in part, for a method for in vitro screening drug candidates inhibitory of the gut flora-derived extracellular vesicle-induced secretion of IL-6, by which drug candidates preventive or therapeutic of gut flora-derived extracellular vesicles-caused diseases can be provided.
# According to the method established in Example 12, mouse macrophages (RAW 264.7) were treated with neither extracellular vesicles nor any drug candidate (negative control), with E. coli-derived extracellular vesicles (0.1 μg/ml) alone (positive control) or with the extracellular vesicles (0.1 μg/ml) in combination with 10 μM of one selected from among 80 different kinase inhibitors ((kinase inhibitor library, BIOMOL No. 2832: PD-98059, U-0126, SB-203580, H-7, H-9, AG-494, AG-825, Lavendustin A, RG-14620, Tytphostin 23, Tytphostin 25, Tytphostin 46, Tytphostin 47, Tytphostin 51, Tytphostin 1, Tytphostin 9, Tytphostin AG 1288, Tytphostin AG 1478, Tytphostin AG 1295, HNMPA, Damnacanthal, Piceatannol, AG-490, AG-126, AG-370, AG-879, LY 294002, Wortmannin, GF 109203X, Hypericin, Sphingosine, H-89, H-8, HA-1004, HA-1077, HDBA, KN-62, KN-93, ML-7, ML-9, 2-Aminopurine, N9-Isopropyl-olomoucine, Olomoucine, iso-olomoucine, Roscovitine, LFM-A13, SB-202190, ZM 336372, SU 4312, AG-1296, Rottlerin, Genistein, Daiazein, Erbstatin analog, Quercetin dehydrate, SU 1498, ZM 449829, DRB (5,6-Dichloro-1-b-D-ribofuranosylbenzimidazole), HBDDE (2,2′,3,3′,4,4′-Hexahydroxy-1,1′-biphenyl-6,6′-dimethanol dimethyl ether), Indirubin, Indirubin-3′-monoxime, Y-27632, Kenpaullone, Terreic acid, BML-257, BML-259, Apigenin, BML-265 (Erlotinib analog), Rapamycin). After 15 hours of treatment, IL-6 was quantitatively analyzed by ELISA.
# C57BL/6 mice = assay: In vivo serum IL-6 in extracellular vesicle-induced sepsis mouse model; conditions: 10 mg/kg i.p.; vesicles 5 μg i.p.; 6 hours; ELISA
# Protocol: In vivo assay was performed to examine whether the prodrugs discovered in Example 15 exert anti-inflammatory effects in the body. To this end, the sepsis mouse models that were established by the intraperitoneal injection of 5 μg of E. coli-derived extracellular vesicles into C57BL/6 mice (male, 6 weeks old, 4 mice in each group) as in Example 6 was intraperitoneally injected with Haloperidol and Doxepein at a dose of 10 mg/kg, each. Sera were taken 6 hours later.
# [4] = tested on: mouse macrophages (RAW 264.7); assay: IL-6 secretion from macrophages treated with extracellular vesicles from small intestinal fluid; type: cell-based; conditions: RAW 264.7, ELISA, versus vesicles alone
# Source text: Extracellular vesicles were separated from small intestinal fluids of normal mice and DSS-induced mouse model of […]. To this end, mice were operated on to excise the small intestine. The peyer's patch and liquid were removed from the excised small intestine which was then cut at regular lengths of about 5 cm. The intestinal pieces were transversely cut and washed with physiological saline to remove impurities therefrom. They were again cut into pieces with dimensions of 1 cm×1 cm and vortexed five times for five sec per time in 30 mL of physiological saline. After the removal of intestinal tissues and impurities by centrifugation, the supernatant was ultra-centrifuged to separate extracellular vesicles.
# FIGS. 3 and 4 show the secretion of the inflammatory cytokine IL-6 in mouse macrophages (RAW 264.7) treated with various concentrations of the extracellular vesicles separated from the small intestinal fluids of normal mice and DSS-induced mouse models of IBD.
# FIG. 5 provides the results after an experiment was done to see whether the exracellular vesicles from the DSS-induced mouse model of IBD contained those derived from Gram-negative bacteria.
# [5] = RAW264.7, 15 h, read-out: IL-6 level as percentage of the positive control (prodrugs)
compound,measurement,setting,value
CN(C)CCC=C1c2ccccc2CCc2ccccc21 [Amitriptyline],activity at 10 µM,[1]; [5],< 80%
same,IL-6 release from mouse peritoneal macrophages,[2],inhibitory effect
"O=c1cc(-c2ccc(O)cc2)oc2cc(O)cc(O)c12 [Apigenin, 5,7-dihydroxy-2-(4-hydroxyphenyl)chromen-4-one]",activity at 10 µM,[3],< 50%
"CC(C)c1cnc(NC(=O)Cc2ccccc2)s1 [BML-259, N-(5-Isopropylthiazol-2-yl)phenylacetamide]",activity at 10 µM,[3],< 50%
CN(C)CCC=C1c2ccccc2C=Cc2ccccc21 [Cyclobenzaprine],activity at 10 µM,[1]; [5],< 80%
same,IL-6 release from mouse peritoneal macrophages,[2],inhibitory effect
"OC[C@H]1O[C@H](n2cnc3cc(Cl)c(Cl)cc32)[C@@H](O)[C@H]1O [DRB, (2S,3S,4R,5R)-2-(5,6-dichlorobenzimidazol-1-yl)-5-(hydroxymethyl)oxolane-3,4-diol]",activity at 10 µM,[3],< 50%
CNCCCN1c2ccccc2CCc2ccccc21 [Desipramine],activity at 10 µM,[1]; [5],< 80%
same,IL-6 release from mouse peritoneal macrophages,[2],inhibitory effect
CN(C)CCC=C1c2ccccc2COc2ccccc21 [Doxepin],activity at 10 µM,[1]; [5],< 80%
same,serum IL-6 level,C57BL/6 mice,effectively suppressed
same,IL-6 release from mouse peritoneal macrophages,[2],inhibitory effect
Cl.Cl.OCCN1CCN(CCCN2c3ccccc3Sc3ccc(C(F)(F)F)cc32)CC1 [Fluphenazine dichloride],IL-6 release from mouse peritoneal macrophages,[2],inhibitory effect
"CN(C)CCCn1cc(C2=C(c3c[nH]c4ccccc34)C(=O)NC2=O)c2ccccc21 [GF109203X, 3-[1-[3-(dimethylamino)propyl]indol-3-yl]-4-(1H-indol-3-yl)pyrrole-2,5-dione]",activity at 10 µM,[3],< 50%
"CC1CNCCN1S(=O)(=O)c1cccc2cnccc12 (centres unmarked) [H-7, 5-(2-methylpiperazin-1-yl)sulfonylisoquinoline dihydrochloride]",activity at 10 µM,[3],< 50%
O=C(CCCN1CCC(O)(c2ccc(Cl)cc2)CC1)c1ccc(F)cc1 [Haloperidol],activity at 10 µM,[1]; [5],< 80%
same,serum IL-6 level,C57BL/6 mice,effectively suppressed
same,IL-6 release from mouse peritoneal macrophages,[2],inhibitory effect
CN(C)CCCN1c2ccccc2CCc2ccccc21 [Imipramine],activity at 10 µM,[1]; [5],< 80%
same,IL-6 release from mouse peritoneal macrophages,[2],inhibitory effect
"O=C1N=c2ccccc2=C1c1[nH]c2ccccc2c1NO [Indirubin-3′monoxime, 3-[3-(hydroxyamino)-1H-indol-2-yl]indol-2-one]",activity at 10 µM,[3],< 50%
"O=C1Cc2c([nH]c3ccc(Br)cc23)-c2ccccc2N1 [Kenpaullone, 9-bromo-7,12-dihydro-5H-indolo[3,2-d][1]benzazepin-6-one]",activity at 10 µM,[3],< 50%
"O=c1cc(N2CCOCC2)oc2c(-c3ccccc3)cccc12 [LY294002, 2-morpholin-4-yl-8-phenylchromen-4-one]",activity at 10 µM,[3],< 50%
"O=S(=O)(c1cccc2c(I)cccc12)N1CCCNCC1 [ML-7, 1-(5-iodonaphthalen-1-yl)sulfonyl-1,4-diazepane hydrochloride]",activity at 10 µM,[3],< 50%
"O=S(=O)(c1cccc2c(Cl)cccc12)N1CCCNCC1 [ML-9, 1-(5-chloronaphthalen-1-yl)sulfonyl-1,4-diazepane hydrochloride]",activity at 10 µM,[3],< 50%
CNCCCC12CCC(c3ccccc31)c1ccccc12 [Maprotiline],activity at 10 µM,[1]; [5],< 80%
same,IL-6 release from mouse peritoneal macrophages,[2],inhibitory effect
Cc1ccccc1C(OCCN(C)C)c1ccccc1 (centres unmarked) [Orphenadrine],activity at 10 µM,[1]; [5],< 80%
same,IL-6 release from mouse peritoneal macrophages,[2],inhibitory effect
"COc1ccc2c(c1)c(OC(C)C)c(C(N)=O)[s+]2[O-] (centres unmarked) [PD-144795, 5-methoxy-3-(1-methylethoxy)benzo(b)thiophene-2-carboxamide-1-oxide]",IL-6 secretion at graded concentrations,"[1]; 0.1, 1, 5, 10 μM, vesicles 100 ng/ml",inhibits IL-6 secretion in a dose-dependent manner
same,activity at 10 µM,"[1]; RAW264.7, 10 μM, read-out: IL-6 level as percentage of the positive control (phosphatase inhibitors)",< 50%
CC(C)(C)c1ccc(C(O)CCCN2CCC(C(O)(c3ccccc3)c3ccccc3)CC2)cc1 (centres unmarked) [Terfenadine],activity at 10 µM,[1]; [5],< 80%
same,IL-6 release from mouse peritoneal macrophages,[2],inhibitory effect
Cc1c(Cl)cccc1Nc1ccccc1C(=O)O [Tolfenamic acid],activity at 10 µM,[1]; [5],< 80%
same,IL-6 release from mouse peritoneal macrophages,[2],inhibitory effect
O=c1n(CCCN2CCN(c3cccc(Cl)c3)CC2)nc2ccccn12 [Trazodone],activity at 10 µM,[1]; [5],< 80%
same,IL-6 release from mouse peritoneal macrophages,[2],inhibitory effect
NS(=O)(=O)c1cc2c(cc1Cl)NC(C(Cl)Cl)NS2(=O)=O (centres unmarked) [Trichlormethiazide],activity at 10 µM,[1]; [5],< 80%
COc1ccc(CCN(C)CCCC(C#N)(c2ccc(OC)c(OC)c2)C(C)C)cc1OC (centres unmarked) [Verapamil],activity at 10 µM,[1]; [5],< 80%
"C=CC(=O)c1ccc2ccccc2c1 [ZM449829, 1-(2-Naphthalenyl)-2-propen-1-one]",activity at 10 µM,[3],< 50%
polymyxin B,"secretion of IL-6 induced by extracellular vesicles from DSS-induced IBD mice, in combination with polymyxin B",[4],decreased
